From patent publication US6316194A, “Methods and kits for discovery of RNA-binding antimicrobials” (Ribotargets, priority 1999, dated 2001)

Tested on: DABCYL-A site RNA (25 nucleotide model of the 16S rRNA A site, SEQ ID No. 1)
Assay: Competitive inhibition of paramomycin-TAMRA binding to DABCYL-A site RNA by unlabelled antibiotic (FRET, 96-well plate reader)
Conditions: 25 nM paramomycin-TAMRA
Description: (§1) Binding of paramomycin-TAMRA to A site RNA was measured in a fluorescent plate reader. Measurements were made in a 96-well plate reader (Wallac victor) with a fixed wavelength of 544 nm and emission at 590 nm. I0 was determined by an initial measurement of a 95 μL solution of 25 nM paramomycin-TAMRA in the presence of 50 mM Tris-HCl pH7.5, 80 mM KCl, 0.1% DMSO 0.00007% Triton X-100 and 0.5 ug/mL BSA presence of 10 μM Neomycin. I (the final measurement) was then measured following the addition of 5 μL of a 20×DABCYL-A site RNA stock solution (corresponding to the amounts shown in the figure).
as §1, with “of 15” for “of 10”, “in FIG. 9). […]” for “in the figure).”

Row | Molecule | Inhibition of paramomycin-TAMRA to A site binding (15 μM Paramomycin (heading)) | Inhibition of paramomycin-TAMRA to A site binding (10 μM Neomycin)
1 | NC[C@@H]1O[C@H](O[C@H]2[C@@H](O)[C@H](O[C@@H]3[C@@H](O)[C@H](N)C[C@H](N)[C@H]3O[C@H]3O[C@H](CO)[C@@H](O)[C@H](O)[C@H]3N)O[C@@H]2CO)[C@H](N)[C@@H](O)[C@@H]1O [paramomycin] | competitive inhibitor | 
2 | Neomycin |  | a reduction in fluorescence in the presence of the neomycin competitor was observed
